In paper PMC8296573, “Synthesis and Biological Evaluation of Fingolimod Derivatives as Antibacterial Agents” (ACS Omega, 2021):
≈ marks a conversion by molar mass, not a printed value. Like-named read-outs stand apart in the source and are kept apart here.

Tests used:
S. aureus P2 = assay: Antibacterial activity, pre-exposure; format: cell-based, Staphylococcus aureus; settings: for Average inhibition %, biofilms viability / Average inhibition %, planktonic cells viability / inhibition at 5 µM / inhibition at 10 µM / inhibition at 15 µM / inhibition at 25 µM: S. aureus P2, pre-exposure, ± SD; for MIC / inhibition at 5 µM / inhibition at 10 µM / inhibition at 15 µM / inhibition at 25 µM: Staphylococcus aureus; for MIC: P2, pre-exposure, 18 h
Experimental: (§1) The antimicrobial activity was assessed in a similar way for the initial screening and the dose–response evaluation against different bacterial strains. With the exception of the post-exposure experiment, the compounds were added to the wells along with the bacteria to test the ability of compounds to prevent bacterial growth and biofilm formation (pre-exposure). The compounds were diluted in DMSO and plated directly in 96-well plates before adding the bacterial culture, and plates were incubated for 18 h under aerobic conditions at 37 °C with shaking (220 rpm). The antibacterial activity of the compounds was assessed on planktonic cells and biofilms separately using two different measurements for each: optical density (turbidity) and resazurin reduction (viability) on planktonic cells and resazurin followed by a crystal violet staining assay (total biomass) on biofilms, as described in the following sections.
(§2) The resazurin staining was performed according to the protocol previously optimized with a few modifications.[46] Briefly, the planktonic solution was first transferred into a new 96-well plate and the OD of the planktonic solution was measured using a Varioskan LUX Multimode microplate reader (Thermo Scientific, Vantaa, Finland). Then, 10 μL of a 400 μM resazurin (R7017, Sigma-Aldrich, St. Louis, MO) diluted in phosphate-buffered saline (PBS) (Thermo Fisher Scientific, MA) was added to the wells (for a final resazurin concentration of 20 μM). The plate was incubated in the dark with shaking (220 rpm) for about 3–10 min at room temperature with S. aureus and A. baumannii (until the bacteria controls turned pink) or for 20 min at 37 °C with P. aeruginosa. Fluorescence was measured at λex = 560 nm and λem = 590 nm using the top optics of the Varioskan LUX Multimode microplate reader. The planktonic plate was then discarded. The original challenge plate containing the biofilms was washed once with PBS, and 200 μL of a 20 μM resazurin solution was added to the wells. The plate was incubated in the dark at 37 °C with shaking (220 rpm) for 30 min with S. aureus, 60 min with A. baumannii, and 90 min with P. aeruginosa. Fluorescence was measured as described for the planktonic solution. The biofilms were next treated with crystal violet staining.
(§3) After removing the resazurin solution from the plate, biofilms were fixed with ethanol 100% for 15 min at room temperature. Ethanol was then removed, and the biofilms were left to air-dry completely at RT. Crystal violet, diluted to 1:100 in deionized water from the 2.3% commercial solution (HT90132, Sigma-Aldrich, St. Louis, MO), was added to the wells and, after a 5 min incubation with the dye, the biofilms were washed twice with deionized water and left to air-dry for about 10 min. The dye was solubilized in ethanol 100% for 1 h, and absorbance was measured at 595 nm using a Multiskan Sky microplate spectrophotometer (Thermo Scientific, Vantaa, Finland).

S. aureus ATCC 12598 = assay: Antibacterial activity, pre-exposure; format: cell-based, Staphylococcus aureus; settings: for Average inhibition %, biofilms viability / Average inhibition %, planktonic cells viability / inhibition at 5 µM / inhibition at 10 µM / inhibition at 15 µM / inhibition at 25 µM: S. aureus ATCC 12598, pre-exposure, ± SD; for inhibition at 5 µM / inhibition at 10 µM / inhibition at 15 µM / inhibition at 25 µM / MIC: Staphylococcus aureus, ATCC12598; for MIC: pre-exposure, 18 h, read-out: MIC S. aureus ATCC 12598
Experimental: as §1, §2, §3

[1] = Cytotoxicity, resazurin staining assay; format: cell-based, human; settings: human, 24 h incubation
Experimental: The cytotoxicity of the compounds was assessed on the three different human cell lines, A549, HEp-2, and HL-60, using the redox-based resazurin staining assay. The cells were seeded in clear 96-well plates at a density of 1 × 10^4 cells per well in a volume of 200 μL per well. The adherent cells were let to attach for 24 h before changing the media and adding the compounds (final concentration of 0.25% DMSO). HL-60 were counted and added to the plates at a density of 1 × 10^4 cells per well in a volume of 200 μL directly with the compounds. Untreated cells were used as negative controls, and cells treated with 1% TritonX-100 (Sigma-Aldrich, St. Louis, MO) were used as positive controls for cytotoxicity. The cells were incubated with the compounds for 24 h.
For the resazurin assay, the media was first removed, and the adherent cells were washed once with PBS. Then, 200 μL of 20 μM resazurin was added per well and cells were incubated for two more hours before the measurement of fluorescence, as mentioned earlier. For HL-60, 10 μL of 400 μM resazurin was added directly to the wells and the cells were incubated for an additional 4 h before the measurement of fluorescence.

[2] = 5 µM, read-out: Average inhibition %, biofilms biomass
[3] = 5 µM, read-out: Average inhibition %, planktonic cells turbidity
[4] = 10 µM, read-out: Average inhibition %, biofilms biomass
[5] = 10 µM, read-out: Average inhibition %, planktonic cells turbidity
[6] = 15 µM, read-out: Average inhibition %, biofilms biomass
[7] = 15 µM, read-out: Average inhibition %, planktonic cells turbidity
[8] = 25 µM, read-out: Average inhibition %, biofilms biomass
[9] = 25 µM, read-out: Average inhibition %, planktonic cells turbidity

SMILES | Average inhibition %, biofilms viability (S. aureus P2; 5 µM) | Average inhibition %, planktonic cells viability (S. aureus P2; 5 µM) | Average inhibition %, biofilms viability (S. aureus P2; 10 µM) | Average inhibition %, planktonic cells viability (S. aureus P2; 10 µM) | Average inhibition %, biofilms viability (S. aureus P2; 15 µM) | Average inhibition %, planktonic cells viability (S. aureus P2; 15 µM) | Average inhibition %, biofilms viability (S. aureus P2; 25 µM) | Average inhibition %, planktonic cells viability (S. aureus P2; 25 µM) | MIC (S. aureus P2) | inhibition at 5 µM (S. aureus P2; [2]) | inhibition at 5 µM (S. aureus P2; [3]) | inhibition at 10 µM (S. aureus P2; [4]) | inhibition at 10 µM (S. aureus P2; [5]) | inhibition at 15 µM (S. aureus P2; [6]) | inhibition at 15 µM (S. aureus P2; [7]) | inhibition at 25 µM (S. aureus P2; [8]) | inhibition at 25 µM (S. aureus P2; [9]) | Average inhibition %, biofilms viability (S. aureus ATCC 12598; 5 µM) | Average inhibition %, planktonic cells viability (S. aureus ATCC 12598; 5 µM) | Average inhibition %, biofilms viability (S. aureus ATCC 12598; 10 µM) | other results
CCCCCCCCc1ccc2ccc(CC(N)(CO)CO)nc2c1 [Compound 82, 2-Amino-2-[(7-octylquinolin-2-yl)methyl]propane-1,3-diol] | 23.7 ± 8.8% | 1 ± 1.8% | 99.5 ± 0% | 99.8 ± 0% | 99.8 ± 0% | 99.6 ± 0% | 99.7 ± 0.1% | 99.5 ± 0% | 10 µM (≈ 3.44 µg/mL) | 39.9 ± 7% | 5 ± 2.2% | 97.6 ± 0.4% | 99.6% | 97.2 ± 0.8% | 99.7% | 96.4 ± 0.6% | 99.4 ± 0.1% | 12.2 ± 12.8% | 13.3 ± 5% | 99.1 ± 0.2% | Average inhibition %, planktonic cells viability (S. aureus ATCC 12598; 10 µM): 99.8 ± 0%; Average inhibition %, biofilms viability (S. aureus ATCC 12598; 15 µM): 99.5 ± 0%; Average inhibition %, planktonic cells viability (S. aureus ATCC 12598; 15 µM): 99.7 ± 0%; Average inhibition %, biofilms viability (S. aureus ATCC 12598; 25 µM): 99.7 ± 0.1%; Average inhibition %, planktonic cells viability (S. aureus ATCC 12598; 25 µM): 99.6 ± 0.1%; inhibition at 5 µM (S. aureus ATCC 12598; [2]): 26.3 ± 11.6%; inhibition at 5 µM (S. aureus ATCC 12598; [3]): 20.6 ± 8.5%; inhibition at 10 µM (S. aureus ATCC 12598; [4]): 94.4 ± 1.7%; inhibition at 10 µM (S. aureus ATCC 12598; [5]): 99.6 ± 0.1%; inhibition at 15 µM (S. aureus ATCC 12598; [6]): 97.1 ± 1.1%; inhibition at 15 µM (S. aureus ATCC 12598; [7]): 99.7%; inhibition at 25 µM (S. aureus ATCC 12598; [8]): 94.6 ± 1.4%; inhibition at 25 µM (S. aureus ATCC 12598; [9]): 99.4 ± 0.2%; MIC (S. aureus ATCC 12598): 10 µM (≈ 3.44 µg/mL); CC50 at 24 h ([1]; A549 cells): 27.5 ± 3 µM; CC50 at 24 h ([1]; HEp-2 cells): 28.8 ± 1.8 µM; CC50 at 24 h ([1]; HL-60 cells): 6.5 ± 0.8 µM
CCCCCCCCCCc1ccc(C(O)CC(N)(CO)CO)cc1 (centres unmarked) [Compound 55, 3-Amino-3-(hydroxymethyl)-1-(4-decylphenyl)butane-1,4-diol] | 32.1 ± 8.5% | 3.4 ± 5.8% | 99.4 ± 0.2% | 99.8 ± 0% | 99.6 ± 0% | 99.6 ± 0.1% | 99.6 ± 0% | 99.5 ± 0.1% | 10 µM (≈ 3.52 µg/mL) | 23.6 ± 10.9% | 14 ± 3% | 96.5 ± 0.7% | 99.6 ± 0.1% | 95.1 ± 0.2% | 99.3 ± 0.1% | 91.6 ± 1.2% | 98.8 ± 0.2% | 15.2 ± 6.4% | 7.6 ± 8.8% | 99.2 ± 0.1% | Average inhibition %, planktonic cells viability (S. aureus ATCC 12598; 10 µM): 99.8 ± 0%; Average inhibition %, biofilms viability (S. aureus ATCC 12598; 15 µM): 99.5 ± 0.3%; Average inhibition %, planktonic cells viability (S. aureus ATCC 12598; 15 µM): 99.7 ± 0%; Average inhibition %, biofilms viability (S. aureus ATCC 12598; 25 µM): 99.6 ± 0%; Average inhibition %, planktonic cells viability (S. aureus ATCC 12598; 25 µM): 99.6 ± 0.1%; inhibition at 5 µM (S. aureus ATCC 12598; [2]): 27.6 ± 19.6%; inhibition at 5 µM (S. aureus ATCC 12598; [3]): 21.2 ± 6.5%; inhibition at 10 µM (S. aureus ATCC 12598; [4]): 94.3 ± 1.2%; inhibition at 10 µM (S. aureus ATCC 12598; [5]): 99.6 ± 0.1%; inhibition at 15 µM (S. aureus ATCC 12598; [6]): 93 ± 1.1%; inhibition at 15 µM (S. aureus ATCC 12598; [7]): 99.4 ± 0.2%; inhibition at 25 µM (S. aureus ATCC 12598; [8]): 90.2 ± 2.1%; inhibition at 25 µM (S. aureus ATCC 12598; [9]): 98.9 ± 0.3%; MIC (S. aureus ATCC 12598): 10 µM (≈ 3.52 µg/mL); CC50 at 24 h ([1]; A549 cells): 35.3 ± 5.1 µM; CC50 at 24 h ([1]; HEp-2 cells): 33.9 ± 1.2 µM; CC50 at 24 h ([1]; HL-60 cells): 7.4 ± 6.9 µM
